The results in this text go back to patent US10450274B2, “Quinoline compounds, preparation methods thereof, and uses thereof as urate transporter inhibitor drug” (HINOVA PHARMACEUTICALS INC., priority 2015, dated 2019).

Usually IC50 stands for the concentration that inhibits the measured activity by half.

Values joined by “and” are separate entries in the source; they are usually repeats but may differ in a detail not shown here. Identical values can stand only once. Like-named read-outs stand apart in the source and are kept apart here.

This test has as its target T1, hURAT1 (Homo sapiens, UniProt Q96S37).
T1 sequence (Q96S37 1-553): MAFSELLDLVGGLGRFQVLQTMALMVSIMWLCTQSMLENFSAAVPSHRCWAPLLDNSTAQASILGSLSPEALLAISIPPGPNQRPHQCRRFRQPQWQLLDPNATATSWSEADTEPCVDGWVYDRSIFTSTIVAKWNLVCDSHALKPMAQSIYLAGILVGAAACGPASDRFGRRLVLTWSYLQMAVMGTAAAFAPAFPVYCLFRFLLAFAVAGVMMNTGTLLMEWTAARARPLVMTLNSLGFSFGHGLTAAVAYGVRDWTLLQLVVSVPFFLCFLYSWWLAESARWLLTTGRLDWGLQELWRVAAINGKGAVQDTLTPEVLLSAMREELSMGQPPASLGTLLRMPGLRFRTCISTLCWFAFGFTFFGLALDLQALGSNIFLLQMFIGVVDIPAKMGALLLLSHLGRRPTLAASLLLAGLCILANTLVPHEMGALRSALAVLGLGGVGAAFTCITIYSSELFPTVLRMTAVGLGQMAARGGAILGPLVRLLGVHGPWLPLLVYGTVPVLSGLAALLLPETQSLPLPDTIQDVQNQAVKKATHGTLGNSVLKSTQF
Briefly: Inhibitory activity against URAT1: 14C-labelled uric acid uptake in HEK-293t cells stably expressing hURAT1. The class given is cell-based. An excerpt:
• Test example: Determination of the inhibitory activity of compounds according to the present invention against URAT1 Experimental Materials • FBS (Invitrogen, Cat. No. 10099141) • Trypsin (Invitrogen, Cat. No. 25200056) • DPBS (Invitrogen, Cat. No. 14190250) • DMEM (Invitrogen, Cat. No. 10564) • Penicillin-Streptomycin (Invitrogen, Cat. No. 15070-063) • TransIT-293 Transfection Reagent (MIRUS BIO, Cat. No. MIR2706) • Opti-MEM® I Reduced Serum Medium (Invitrogen, Cat. No. 31985-070) • URAT1 plasmid (Genecopoeia, Cat. No. EX-T4563-M03) • Uric acid [8-14C] (ARC, Cat. No. ARC0513-250UCI) • Ultima Gold™ XR (PerkinElmer, Cat. No. 6013111) • Benzbromarone (J&K Scientific, Cat. No. 3562-84-3) • D-Gluconic acid sodium salt (Aladdin, Cat. No. 527-07-1) • Potassium D-gluconate (Aladdin, Cat. No. 299-27-4) • Calcium gluconate (Aladdin, Cat. No. 299-28-5) • DMSO (Sigma, Cat. No. D2650) • Tube, 15 ml (Greiner, Cat. No. 07030115) • Tube, 50 ml (BD Falcon, Cat. No. 352098) • Poly-D-lysine 96-well microplates (BD, Cat. No. 356461) • Isoplate-96 Microplate (PERKIN ELMER, Cat. No. 6005040) Experimental Method:
Cell Culture: • 1. The HEK-293t cells that expressed the stable expression of hURAT1 were cultured in DMEM medium containing 10% FBS and 1% P/S, and incubated overnight in the incubator at 37° C. under 5% carbon dioxide. • 2. the culture medium was removed, and the cells were washed with PBS, and then the pancreatin was added to digest for 2 minutes. After the cell is separated from the dish, 10 ml of medium was added to terminate digestion. • 3. The cells were placed into a centrifugal apparatus and centrifugated for 2 minutes at the speed of 1000 rpm, followed by the addition of fresh 10 mL medium to resuspend the cells, and calculate the number of cells. The number of cells was adjusted to 4×10^5 cells/mL. • 4. the above counted cells were inoculated into the 96-well plate at 100 μL/well. • 5. The 96-well plate with inoculated cells was placed in a 37° C. cell incubator and cultivated overnight.
The uric acid absorption experiment labeled with isotope C14: • 1. 5 mL of Cl-free HBSS buffer was added to a 15 mL centrifuge tube, followed by the addition of the uric acid labeled with C14, and the concentration of uric acid was 2 uCi/ml. • 2. The medium in the 96-well plate that was previously cultivated overnight was removed, and the plate was washed three times with […] preheated Cl-free HBSS buffer. • 3. The buffer in the well-washed 96-well plate was removed. • 4. […] Cl-free HBSS buffer containing C-14 labeled uric acid was added into each well in the cleaned 96-well plate, and then DMSO solution of the compound that needs to be tested was added. • 5. After the 96-well plate stood for 5 minutes at room temperature, all the liquid in it was removed. • 6. […] precooled Cl-free HBSS buffer was added to wash the plate three times. • 7. After the remained liquid in the plates was completely removed, 50 μL cell lysis was added to each well, and the plate was agitated on the mixer at a speed of 600 revolutions/min for 10 minutes. • 8. After 50 μL Ultima Gold™ XR scitillation cocktail fluid was added, the plate was continued to agitate for 10 minutes. The well-agitated plate was sealed, and the data was read on MicroBeta Trilux. • 9. The test compound was dissolved in DMSO, and DMSO at the same concentration was added to the HEK293/hURAT1 cell well without test compounds. […] The radiation value obtained from the well containing DMSO is considered to be 100% of the cell uptake. The IC50 values of compounds can be calculated by the inhibition rate at different concentrations.
Among them, reference compound 1 was synthesized according to the method described in patent WO 2011/159839 A2. Reference compound 2 and reference compound 3 were synthesized according to the method described in patent WO 2014/183555 A1, and they were head-to-head tested with compounds 83 and 129 respectively under the same conditions.

[1] abbreviates: HEK-293t/hURAT1 cells, 14C uric acid uptake, 5 minutes at room temperature, Ref Cpd 2, 83, Ref Cpd 3 and 129 are averages of head-to-head tests, read-out: IC50 (nM) of hURAT1 inhibitory activity.

Take `CCC(CC)(Sc1ccnc2ccc(-c3ccncc3)cc12)C(=O)O` [Compound 119, 2-(6-(pyridin-4-yl)quinolin-4-ylthio)-2-ethylbutanoic acid]: the half-maximal inhibitory concentration (IC50) under setting [1] is 133 nM.
Turning to `CCCC(CCC)(Sc1ccnc2ccc(-c3cccc(OC4CC4)c3)cc12)C(=O)O` [Compound 109, 2-(6-(3-cyclopropyloxy-phenyl)-quinolin-4-ylthio)-2-propylpentanoic acid], the IC50 under setting [1] worked out at 722 nM.
Regarding `CCC(CC)(Sc1ccnc2ccc(-c3cccc(OC4CCC4)c3)cc12)C(=O)O` [Compound 111, 2-(6-(3-cyclobutyloxy-phenyl)-quinolin-4-ylthio)-2-ethylbutanoic acid], the IC50 under setting [1] was 267 nM.
“2-(6-(3-fluoropyridin-4-yl)-quinolin-4-ylthio)-2-ethylbutanoic acid [Compound 123]”: the IC50 under setting [1] worked out at 1400 nM.
Regarding `CC(C)(Sc1ccnc2ccc(C3CC3)cc12)C(=O)O` [Compound 1, 2-(6-cyclopropylquinolin-4-ylthio)-2-methylpropanoic acid], the concentration for half-maximal inhibition (IC50) under setting [1] came out at 486 nM.
For the compound `CS(=O)(=O)NC(=O)C1(Sc2ccnc3ccc(Br)cc23)CCC1` [Compound 107, 1-(6-bromoquinolin-4-ylthio)-N-(methylsulfonyl)cyclobutyl-1-formamide], the IC50 under setting [1] was 336 nM.
Consider `CC(C)(Sc1ccnc2ccccc12)C(=O)O` [Compound 93, 2-(quinolin-4-ylthio)-2-methylpropanoic acid], for which the concentration for half-maximal inhibition (IC50) under setting [1] came to 2400 nM.
On to `CC(C)Oc1cccc(-c2ccc3nccc(SC(C)(C)C(=O)O)c3c2)c1` [Compound 103, 2-(6-(3-isopropoxy-phenyl)-quinolin-4-ylthio)-2-methylpropanoic acid], for which the IC50 under setting [1] was 37 nM.
As for `COc1cc2nccc(SC(C)(C)C(=O)O)c2cc1OC` [Compound 95, 2-(6,7-dimethoxyquinolin-4-ylthio)-2-methylpropanoic acid], the half-maximal inhibitory concentration (IC50) under setting [1] was greater than 30000 nM.
Consider `O=C(O)C1(Sc2ccnc3ccccc23)CCC1` [Ref Cpd 3, reference compound], for which the IC50 under setting [1] came out at 794 nM.
With `CC(C)(Sc1ccnc2ccc(-c3cccc(F)c3)cc12)C(=O)O` [Compound 28, 2-(6-(3-fluorophenyl)-quinolin-4-ylthio)-2-methylpropanoic acid], the half-maximal inhibitory concentration (IC50) under setting [1] came out at 351 nM.
Consider `CC(C)(Sc1ccnc2ccc(-c3cccc(OC(F)(F)F)c3)cc12)C(=O)O` [Compound 101, 2-(6-(3-trifluoromethoxy-phenyl)-quinolin-4-ylthio)-2-methylpropanoic acid], for which the IC50 under setting [1] was 710 nM.
In the case of `Cc1cc(-c2ccc3nccc(SC(C)(C)C(=O)O)c3c2)ccn1` [Compound 120, 2-(6-(2-methylpyridin-4-yl)quinolin-4-ylthio)-2-methylpropanoic acid], the 50% inhibitory concentration (IC50) under setting [1] worked out at 1240 nM.
For `CCC(CC)(Sc1ccnc2ccc(Br)cc12)C(=O)O` [Compound 83, 2-(6-bromoquinolin-4-ylthio)-2-ethylbutanoic acid], the IC50 by setting is: under setting [1], 70.6 nM; (average of the multiple head-to-head comparison tests, Table 2, read-out: Average (IC50 of multiple determinations)) 70.6 nM; (single determinations of multiple head-to-head tests, Ref cpd 2 vs Cpd 83, read-out: Multiple determination data (IC50)) 42.5 nM and 117 nM and 89 nM and 93 nM and 56 nM and 58 nM and 38.9 nM. The “inhibitory effect on uric acid transporter URAT1 (in words)” value (statement in the text on Table 1) is listed as “better inhibitory activity against the uric acid transporter than compound 1”.
Turning to `COc1cccc(-c2ccc3nccc(SC(C)(C)C(=O)O)c3c2)c1` [Compound 20, 2-(6-(3-methoxyphenyl)-quinolin-4-ylthio)-2-methylpropanoic acid], under setting [1], the concentration for half-maximal inhibition (IC50) worked out at 21 nM.
“2-(6-(2-fluoropyridin-4-yl)-quinolin-4-ylthio)-2-ethylbutanoic acid [Compound 118]”: the IC50 under setting [1] is 36 nM.
Turning to `CCC(Sc1ccnc2ccc(Br)cc12)C(=O)O` (centres unmarked) [Compound 24, 2-(6-bromoquinolin-4-ylthio)butanoic acid], under setting [1], the concentration for half-maximal inhibition (IC50) was found to be 6000 nM.
Same read-out and setting: the same measure for `CC(C)C(Sc1ccnc2ccc(Br)cc12)C(=O)O` (centres unmarked) [Compound 94, 2-(6-bromoquinolin-4-ylthio)-3-methylbutanoic acid]: 4300 nM; for `CCC(CC)(Sc1ccnc2ccc(-c3ccnc(C)c3)cc12)C(=O)O` [Compound 121, 2-(6-(2-methylpyridin-4-yl)-quinolin-4-ylthio)-2-ethylbutanoic acid]: 360 nM.
For the compound `CC(C)(Sc1ccnc2ccc(-c3ccc(C#N)cc3)cc12)C(=O)O` [Compound 100, 2-(6-(4-cyano-phenyl)-quinolin-4-ylthio)-2-methylpropanoic acid], the IC50 under setting [1] was found to be 8140 nM.
On the same count and under the same terms, the value for `CC(C)(Sc1ccnc2ccc(-c3cccc(OC(F)F)c3)cc12)C(=O)O` [Compound 104] was 238 nM; that for `CCOc1cccc(-c2ccc3nccc(SC(C)(C)C(=O)O)c3c2)c1` [Compound 102, 2-(6-(3-ethoxy-phenyl)-quinolin-4-ylthio)-2-methylpropanoic acid] was 32 nM; that for `COc1ccc(-c2ccc3nccc(SC(C)(C)C(=O)O)c3c2)cc1` [Compound 21, 2-(6-(4-methoxyphenyl)quinolin-4-ylthio)-2-methylpropanoic acid] was 1900 nM.
